Test results as given in patent US20220402917A1, “COMPOUND AS SMALL MOLECULE INHIBITOR PD-1/PD-L1 AND APPLICATION THEREOF” (MEDSHINE DISCOVERY INC., priority 2019, published 2022).

Key:
[1] = target: T1, PD1/PD-L1 (Homo sapiens, UniProt Q9NZQ7); assay: PD-1/PD-L1 homogeneous time-resolved fluorescence (HTRF) binding experiment; parameters: purchased BPS Biosciences; details: HTRF (TR-FRET), PD-L1-biotin, PD1-Eu
From the text: Experimental Example 1: PD-1/PD-L1 Homogenouse Time-Resolved Fluorescence (HTRF) Binding Experiment
When the PD-1 molecule as the donor is very close to the PD-L1 molecule as the acceptor, the donor molecule will transfer the energy to the receptor molecule, which in turn causes the receptor molecule to emit fluorescence. The ability of small molecules to prevent the binding of PD-L1 to PD-1 can be tested by detecting the intensity of fluorescence. A homogeneous time-resolved fluorescence (HTRF) binding experiment is used to detect the ability of the compounds of the present disclosure to inhibit the binding of PD-1/PD-L1.
PD1/PD-L1 TR-FRET detection kit was purchased from BPS Biosciences. Nivo multi-label analyzer (PerkinElmer).
PD1-Eu, Dye-labeled acceptor, PD-L1-biotin and compounds to be tested were diluted with the buffer in the kit. The compounds to be tested were subjected to 5-fold dilution to eight concentration gradients with a row gun. That is, from 40 μM to 0.5 nM, the DMSO concentration was 4%, and a double-well experiment was set up. 5 μL of inhibitor with each concentration gradient were added to the microwell plate, and 5 μL buffer containing 4% DMSO and 5 μL PD-L1-biotin (PD-L1-biotin) (60 nM) were added into well with the maximum signal (Max) and the well with the minimum signal (Min), only 5 μL of buffer was added to the well with the minimum signal (Min), and the incubation was conducted at 25° C. for 20 minutes. After the incubation was completed, 5 μL of diluted PD1-Eu (10 nM) and […] were added to each well. The reaction system was placed at 25° C. for 90 minutes. The TR-FRET signal was read by a multi-label analyzer after the reaction was completed.
(§1) Using the equation (sample−Min)/(Max−Min)×100% to convert the raw data into inhibition rate, and the IC50 value can be obtained by curve fitting with four parameters (obtained from log(inhibitor) vs. response—Variable slope mode in GraphPad Prism). Table 1 provides the inhibitory activity of the compounds of the examples of the present disclosure on PD1/PD-L1 binding
Target sequence in this assay (Q9NZQ7 19-239 limits assumed): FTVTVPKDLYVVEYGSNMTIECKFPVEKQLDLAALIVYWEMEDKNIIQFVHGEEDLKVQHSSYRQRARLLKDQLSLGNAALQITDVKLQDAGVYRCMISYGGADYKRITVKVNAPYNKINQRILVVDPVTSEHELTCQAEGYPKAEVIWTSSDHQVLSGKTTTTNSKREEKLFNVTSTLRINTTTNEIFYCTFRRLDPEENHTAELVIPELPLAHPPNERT

[2] = target: T1, PD1/PD-L1; assay: NFAT activity test (TCR Activitor/PD-L1 CHO cells with PD-1/NFAT Reporter-Jurkat cells); type: cell-based; parameters: host or cells: TCR Activitor/PD-L1 CHO cells; PD-1/NFAT Reporter-Jurkat cells; details: TCR Activitor/PD-L1 CHO cells + PD-1/NFAT Reporter-Jurkat cells, 5 hours, luciferase; for IC50: read-out: IC50, inhibitory activity on PD1/PD-L1 binding (NFAT activity test)
From the text: Experimental Example 3: NFAT Activity Test
The engineered T cell expresses PD-1 molecules and T cell receptor (TCR) on the surface, which can activate the NFAT signaling pathway of T cells after co-culturing with engineered antigen presenting cells (APCs). Expression of PD-L1 molecules on APCs can effectively attenuate the NFAT signaling pathway in T cells. PD-L1 inhibitors can be used effectively block the PD-1/PD-L1 regulatory mechanism, thereby reversing the weakened NFAT signaling pathway. After being pretreated with APC, the small molecule is co-cultured with T cells, then the expression of luciferase was detected to indirectly reflect the activation of the NFAT pathway in T cells.
The PD1/PD-L1 NFAT detection kit was purchased from BPS Biosciences. Birght-Glo reagent was purchased from Promega. Nivo multi-label analyzer (PerkinElmer).
The TCR Activitor/PD-L1 CHO cells with a growth confluence of 80% were plated into the plate at 35,000 cells per well and placed in a 37° C. cell culture incubator overnight; the compounds to be tested were diluted 5-fold to the 8th concentration, from 20 μM to 0.25 nM, and the DMSO concentration was 2%, a double-well experiment was set up. The TCR Activitor/PD-L1 CHO cell supernatant was discarded, 50 μl of compound working solution was added to each well, incubated at 37° C. for 30 minutes; after the incubation was completed, 50 μL of PD-1/NFAT Reporter-Jurkat cell suspension with a concentration of 4*10^5 cells/mL was added to each well, incubated at 37° C. for 5 hours. After the incubation was completed, 100 μL Bright-Glo was added to each well, and after mixing, the chemiluminescence signal was detected by a Nivo multi-label analyzer.
as §1, with “Table 3” for “Table 1”, “PD1/PD-L1 binding.” for “PD1/PD-L1 binding”
Target sequence in this assay (Q9NZQ7 19-290): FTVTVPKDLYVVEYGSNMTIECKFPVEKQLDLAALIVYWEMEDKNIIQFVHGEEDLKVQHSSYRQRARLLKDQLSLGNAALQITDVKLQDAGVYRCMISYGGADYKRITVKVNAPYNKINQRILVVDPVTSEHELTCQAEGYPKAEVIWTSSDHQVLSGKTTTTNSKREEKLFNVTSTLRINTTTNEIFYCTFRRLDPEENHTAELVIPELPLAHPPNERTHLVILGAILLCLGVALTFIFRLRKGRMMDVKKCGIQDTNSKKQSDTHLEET

[3] = target: T2, PD-L1 in MDA-MR-231 cells (Homo sapiens, UniProt Q9NZQ7); assay: Effect on expression level of PD-L1 in MDA-MR-231 cells (FACS); type: cell-based; details: 24 hours incubation, FACS detection of cell surface PD-L1
T2 construct: endogenous in cells; host or cells: MDA-MB-231
T2 sequence (Q9NZQ7 19-290): as above
Experimental: Experimental Example 2: Using MDA-MR-231 Cells to Detect the Effect of Compounds on the Expression Level of PD-L1
The use of a triple-negative breast cancer cell line (MDA-MB-231) is an indirect method to assess PD-L1 endocytosis. PD-L1 molecules on the cell surface can be degraded by lysosomal and proteasome pathways, and small molecule inhibitors are added to induce PD-L1 endocytosis. After co-incubating small molecules with MDA-MB-231 cells for 24 hours, flow cytometry (Fluorescence-activated Cell Sorting, FACS) is used to detect the content of PD-L1 on the cell surface, which can indirectly reflect the effect of small molecule-induced PD-L1 endocytosis. Flow cytometry (FACS) is used to detect the effect of the compounds of the present disclosure on the expression level of PD-L1 in MDA-MR-231 cells.
Phosphate buffer (DPBS), 1640 medium, penicillin-streptomycin, fetal bovine serum, non-essential amino acids, 2-hydroxy-1-ethanethiol (2-ME), human interferon γ, LIVE/DEAD staining solution, staining buffer, fixation buffer, 0.25% trypsin, EDTA, anti-human PD-L1, anti-human PD-L1 isotype.
1640 complete medium preparation: 50 mL of fetal bovine serum, 5 mL of non-essential amino acids, 5 mL of penicillin-streptomycin and 0.5 mL of 2-hydroxy-1-ethanethiol were added to 439.5 mL of 1640 medium, and evenly mixed.
10 mM EDTA preparation: 1 mL of 0.5M EDTA was added to 49 mL of DPBS, and evenly mixed.
1) MDA-MB-231 cell counting and plating: The culture flask was taken out, the medium was removed and the culture flask was rinsed once with DPBS. After the culture flask was rinsed, 3 mL of 0.25% trypsin was added to the culture flask and the culture flask was placed in a 37° C. incubator for 1.5 min. The culture flask was taken out, 9 mL of 1640 complete medium was added to stop the reaction, the cells was transferred to a 50 mL centrifuge tube, and centrifuged at 1000 rpm for 5 min at 37° C. An appropriate volume of medium was added to re-suspend the cells according to the number of cells, and the number of cells was counted with a cell counter. The cell concentration was adjusted to 5×10^5 cells/mL with medium. Planking: A volume of 200 μL of cell suspension was added to each well of a 96-well plate, ensure that the number of cells in each well was 1×10^5. The cells were incubated overnight in an incubator. 2) Drug incubation: 100-fold dilution of compounds were prepared, and the drug was subjected to a 5-fold gradient dilution. 2 μL of each 100-fold dilution of compounds were added to each well. The cells were incubated in an incubator at 37° C. for 24 hours. 3) PD-L1 cell staining and FACS detection: the culture plate was taken out and the supernatant medium was discarded. The cells were washed once with 200 μL 1×PBS. 100 μL of EDTA (final concentration of 10 mM) was added to the cell suspension, and the cell suspension was treated at 37° C. for 10 min. Then after the cell suspension was centrifuged at 1500 rpm for 5 min, the cell suspension was washed once with 200 μL of staining solution. Staining: anti-human PD-L1 (2 μL per well) and LIVE/DEAD staining solution (1:1000) were diluted in staining solution, 50 μL of the staining solution was added to each well, and the staining was conducted at 4° C. for 30 min. Then the solution was washed twice with 200 μL of staining solution. Fixation: 100 μL of fixing solution was added to each well, the fixation was conducted at 4° C. for 15 min. The solution was then washed twice with 200 μL of staining solution, and 150 μL of solution was added to re-suspend the cells, followed by FACS detection.
Table 2 provides the effects of the compounds of the examples of the present disclosure on the expression level of PD-L1 in MDA-MR-231 cells.

[4] = Pharmacokinetic test in C57BL/6 mice; type: in vivo; details: mouse, plasma, male C57BL/6 mice
Experimental: Experimental Example 4: Pharmacokinetic Test
Experimental purpose: To study the pharmacokinetics of compounds in C57BL/6 mice.
Experimental materials: C57BL/6 mice (male, 8 weeks old, body weight 25 g-30 g)
Experimental operation: The pharmacokinetic characteristics of rodents after intravenous (IV) and oral (PO) administration of compounds were tested in standard protocols. In the experiment, the candidate compounds were formulated into 1 mg/mL clear solutions, and administered to mice via a single intravenous injection and oral administration. The vehicle of intravenous and oral administration was 5% DMSO/5% polyethylene glycol 15-hydroxystearate (Solutol)/90% aqueous solution. Four male C57BL/6 mice were used in the experiment, wherein two mice were administered intravenously at a dose of 1 mg/kg, and the plasma samples were collected 0.0833, 0.25, 0.5, 1, 2, 4, 6, 8 and 24 h after administration, the other two mice were given oral gavage at a dose of 10 mg/kg, and the plasma samples were collected 0.25, 0.5, 1, 2, 4, 6, 8, and 24 h after administration. Whole blood samples within 24 hours were collected, centrifuged at 3000 g for 15 minutes, and the supernatant was separated to obtain plasma samples. Acetonitrile solution containing internal standard was added thereto to precipitate proteins, the mixture was thoroughly mixed and centrifuged to obtain the supernatant for injection. The plasma concentration was quantified by LC-MS/MS analysis method, and the pharmacokinetic parameters were calculated, such as peak concentration (Cmax), clearance (CL), half-life (T1/2), […] (Vdss), area under the drug-time curve (AUC0-last), bioavailability (F) and so on.

Row | IC50 [1] [nM] | Maximum effect (induction fold) [2] [induction fold] | IC50 [2] [nM] | IC50 [3] [nM] | bioavailability ([4]; PO 10 mg/kg vs IV 1 mg/kg, read-out: Bioavailability F) [%] | Cmax ([4]; IV 1 mg/kg, PO 10 mg/kg (route not given for Cmax), read-out: Peak concentration Cmax) [nM] | clearance ([4]; IV 1 mg/kg, read-out: Clearance CL) [mL/min/kg] | half-life ([4]; IV 1 mg/kg, read-out: Half-life T1/2 (IV) (converted)) [h] | Vd ([4]; IV 1 mg/kg, read-out: Tissue distribution Vdss) [L/kg] | AUC(0-t) ([4]; PO 10 mg/kg, read-out: Area under the drug-time curve AUC0-last PO) [µM·h] | Compound
1 | 2.08 | 3.71 | 34.9 | 62.5 |  |  |  |  |  |  | Cc1cc(C(=O)Nc2cccc(-c3cccc(NC(=O)c4ccc(CNCCO)cn4)c3C)c2C)nc2c1CCN(CCO)C2 [Compound 1]
2 | 2.1 |  |  |  |  |  |  |  |  |  | Cc1cc(C(=O)Nc2cccc(-c3cccc(NC(=O)c4ccc(CNCCO)cn4)c3C)c2C)nc2c1CN(CCO)CC2 [Compound 2]
3 | 4.65 | 3.54 | 14.3 | 93.2 |  |  |  |  |  |  | Cc1cc(C(=O)Nc2cccc(-c3cccc(NC(=O)c4ccc(CNCCO)cn4)c3Cl)c2C)nc2c1CCN(CCO)C2 [Compound 6]
4 | 3.22 | 3.38 | 38.4 |  |  |  |  |  |  |  | Cc1cc(C(=O)Nc2cccc(-c3cccc(NC(=O)c4ccc(CNCCO)cn4)c3C)c2C#N)nc2c1CCN(CCO)C2 [Compound 7]
5 | 4.54 | 3.81 | 42.5 | 25.1 |  |  |  |  |  |  | Cc1cc(C(=O)Nc2cccc(-c3cccc(NC(=O)c4ccc(CNCCO)cn4)c3C)c2Cl)nc2c1CCN(C(CO)CO)C2 [Compound 11]
6 | 8.86 | 3.80 | 33.9 | 29.3 |  |  |  |  |  |  | Cc1cc(C(=O)Nc2cccc(-c3cccc(NC(=O)c4ccc(CNCCO)cn4)c3C)c2Cl)nc2c1CCN(C1CCC(O)CC1)C2 (stereo not shown) [Compound 15]
7 | 1.49 | 4.23 | 25.1 | 0.75 |  |  |  |  |  |  | Cc1cc(C(=O)Nc2cccc(-c3cccc(NC(=O)c4ccc(CNCCO)cn4)c3C)c2Cl)nc2c1CCN(CC(=O)O)C2 [Compound 17]
8 | 3.16 | 3.77 | 79.7 | 70.6 |  |  |  |  |  |  | Cc1c(NC(=O)c2ccc(CNCCO)cn2)cccc1-c1cccc(NC(=O)c2cc(NCCO)c3c(n2)CN(CCO)CC3)c1Cl [Compound 18]
9 | 3.58 | 3.43 | 16.9 |  |  |  |  |  |  |  | Cc1cc(C(=O)Nc2cccc(-c3cccc(NC(=O)c4ccc(CNCCO)cn4)c3C)c2Cl)nc2c1CCN(C1CCC(C)(C(=O)O)CC1)C2 (stereo not shown) [Compound 20]
10 |  | 4.39 | 23.4 | 9.48 | 61.6 | 260 | 36.6 | 16.4 | 40.8 | 3.1 | COc1cc(C(=O)Nc2cccc(-c3cccc(-c4cnc(CN5CC(C)(O)C5)c(OC)n4)c3Cl)c2Cl)nc2c1CCN(CCO)C2 [Compound 42]
